row,melting point [°C],SMILES
1,133 to 134,"CCOc1nn(Cc2ccc(OCc3ccc4ccccc4n3)nc2)cc1CCC(=O)O [Example 252, 3-[3-ethoxy-1-[6-(2-quinolylmethoxy)-3-pyridylmethyl]-1H-pyrazol-4-yl]propionic acid]"
2,121 to 122,"CCOc1nn(Cc2ccc(OCc3csc(-c4ccccc4)n3)nc2)cc1CCC(=O)O [Example 254, 3-[3-ethoxy-1-[6-(2-phenyl-4-thiazolylmethoxy)-3-pyridylmethyl]-1H-pyrazol-4-yl]propionic acid]"
3,133 to 134,"CCOc1nn(Cc2ccc(OCc3nc(-c4ccccc4)oc3C)cn2)cc1CCC(=O)O [Example 258, 3-[3-ethoxy-1-[5-(5-methyl-2-phenyl-4-oxazolylmethoxy)-2-pyridylmethyl]-1H-pyrazol-4-yl]propionic acid]"
4,125 to 126,"CCOc1nn(Cc2ccc(OCc3nc(-c4ccccc4)oc3C)cc2)cc1CC(=O)O [Example 260, 3-ethoxy-1-[4-(5-methyl-2-phenyl-4-oxazolylmethoxy)benzyl]-1H-pyrazol-4-ylacetic acid]"
5,123 to 124,"Cc1oc(-c2ccccc2)nc1COc1ccc(Cn2cc(CCC(=O)O)c(-c3ccccc3)c2)cn1 [Example 268, 3-[1-[6-(5-methyl-2-phenyl-4-oxazolylmethoxy)-3-pyridylmethyl]-4-phenyl-3-pyrrolyl]propionic acid]"
6,104 to 105,"CCOc1cc(Cn2cc(CCC(=O)O)c(-c3ccccc3)c2)cc(OCc2csc(-c3cccs3)n2)c1 [Example 276, 3-[1-[3-ethoxy-5-[2-(2-thienyl)-4-thiazolylmethoxy)benzyl]-4-phenyl-3-pyrrolyl]propionic acid]"
7,103 to 104,"CCOC(=O)c1cn(Cc2ccc(OCc3ccccc3)cc2)nc1-c1ccc(F)cc1 [Example 280, ethyl 1-(4-benzyloxybenzyl)-3-(4-fluorophenyl)-1H-pyrazole-4-carboxylate]"
8,94 to 95,"CCOC(=O)/C=C/c1cn(Cc2ccc(OCc3ccccc3)cc2)nc1-c1ccccc1 [Example 284, ethyl (E)-3-[1-(4-benzyloxybenzyl)-3-phenyl-1H-pyrazol-4-yl]propenoate]"
9,147 to 148,"O=C(O)CCc1cn(Cc2ccc(OCc3ccc4ccccc4n3)cc2)nc1-c1ccccc1 [Example 285, 3-[3-phenyl-1-[4-(2-quinolylmethoxy)benzyl]-1H-pyrazol-4-yl]propionic acid]"
10,161 to 162,"O=C(O)CCc1cn(Cc2ccc(OCc3cncc(-c4ccccc4)c3)cc2)nc1-c1ccccc1 [Example 290, 3-[3-phenyl-1-[4-(5-phenyl-3-pyridylmethoxy)benzyl]-1H-pyrazol-4-yl]propionic acid]"
11,225 to 226,"Cn1c(COc2ccc(Cn3cc(CCC(=O)O)c(-c4ccccc4)n3)cc2)nc2ccccc21 [Example 292, 3-[1-[4-(1-methyl-1H-benzimidazol-2-ylmethoxy)benzyl]-3-phenyl-1H-pyrazol-4-yl]propionic acid]"
12,107 to 108,"O=C(O)CCc1cn(Cc2ccc(OCc3csc(-c4ccccc4)n3)nc2)nc1-c1ccccc1 [Example 300, 3-[3-phenyl-1-[6-(2-phenyl-4-thiazolylmethoxy)-3-pyridylmethyl]-1H-pyrazol-4-yl]propionic acid]"
13,149 to 150,"O=C(O)CCc1cn(Cc2ccc(OCc3ccc(-c4ccccc4)cn3)cc2)nc1-c1ccccc1 [Example 302, 3-[3-phenyl-1-[4-(5-phenyl-2-pyridylmethoxy)benzyl]-1H-pyrazol-4-yl]propionic acid]"
14,144 to 145,"Cc1oc(-c2ccccc2)nc1COc1ccc(Cn2cc(CC(=O)O)c(-c3ccccc3)n2)cn1 [Example 308, [1-[6-(5-methyl-2-phenyl-4-oxazolylmethoxy)-3-pyridylmethyl]-3-phenyl-1H-pyrazol-4-yl]acetic acid]"
15,118 to 119,"O=C(O)Cc1cn(Cc2ccc(OCc3csc(-c4ccccc4)n3)nc2)nc1-c1ccccc1 [Example 310, [3-phenyl-1-[6-(2-phenyl-4-thiazolylmethoxy)-3-pyridylmethyl]-1H-pyrazol-4-yl]acetic acid]"
16,148 to 149,"Cc1oc(-c2ccccc2)nc1CCOc1ccc(Cn2cc(CC(=O)O)c(-c3ccccc3)n2)cn1 [Example 314, [1-[6-[2-(5-methyl-2-phenyl-4-oxazolyl)ethoxy]-3-pyridylmethyl]-3-phenyl-1H-pyrazol-4-yl]acetic acid]"
17,141 to 142,"O=C(O)c1cn(Cc2ccc(Oc3ccccc3)cc2)nc1OCc1ccc(Oc2ccccc2)cc1 [Example 320, 1-(4-phenoxybenzyl)-3-(4-phenoxybenzyloxy)-1H-pyrazole-4-carboxylic acid]"

# More lines, now with the values behind:
row,SMILES,melting point [°C]
1,"CCOc1nn(Cc2ccc(OCc3nc(-c4ccco4)oc3C)nc2)cc1CC(=O)O [Example 264, 3-ethoxy-1-[6-[2-(2-furyl)-5-methyl-4-oxazolylmethoxy]-3-pyridylmethyl]-1H-pyrazol-4-ylacetic acid]",155 to 156
2,"O=C(O)CCc1cn(Cc2cc(OCc3csc(-c4ccccc4)n3)cc(OCc3csc(-c4ccccc4)n3)c2)cc1-c1ccccc1 [Example 266, 3-[1-[3,5-bis(2-phenyl-4-thiazolylmethoxy)benzyl]-4-phenyl-3-pyrrolyl]propionic acid]",78 to 79
3,"CCOc1cc(Cn2cc(CCC(=O)O)c(-c3ccccc3)c2)cc(OCc2nc(-c3ccccc3)oc2C)c1 [Example 272, 3-[1-[3-ethoxy-5-(5-methyl-2-phenyl-4-oxazolylmethoxy)benzyl]-4-phenyl-3-pyrrolyl]propionic acid]",126 to 127
4,"CCOc1cc(Cn2cc(CCC(=O)O)c(-c3ccccc3)c2)cc(OCc2csc(-c3ccccc3)n2)c1 [Example 274, 3-[1-[3-ethoxy-5-(2-phenyl-4-thiazolylmethoxy)benzyl]-4-phenyl-3-pyrrolyl]propionic acid]",109 to 110
5,"O=C(O)CCc1cn(Cc2ccc(OCc3ccc(-c4ccccc4)nc3)cc2)cc1-c1ccccc1 [Example 277, 3-[4-phenyl-1-[4-(6-phenyl-3-pyridylmethoxy)benzyl]-3-pyrrolyl]propionic acid]",185 to 186
6,"O=C(O)CCc1cn(Cc2ccc(OCc3ccc(-c4ccccc4)cn3)cc2)cc1-c1ccccc1 [Example 279, 3-[1-[4-(5-phenyl-2-pyridylmethoxy)benzyl]-4-phenyl-3-pyrrolyl]propionic acid]",169 to 170
7,"CCOC(=O)/C=C/c1cn(Cc2ccc(OCc3ccccc3)cc2)nc1-c1ccc(F)cc1 [Example 281, ethyl (E)-3-[1-(4-benzyloxybenzyl)-3-(4-fluorophenyl)-1H-pyrazol-4-yl]propenoate]",113 to 114
8,"O=C(O)CCc1cn(Cc2ccc(OCCn3ncc4ccccc4c3=O)cc2)nc1-c1ccccc1 [Example 286, 3-[1-[4-[2-[1-oxophthalazin-2(1H)-yl]ethoxy]benzyl]-3-phenyl-1H-pyrazol-4-yl]propionic acid]",155 to 156
9,"O=C(O)CCc1cn(Cc2ccc(OCc3ccc(-c4ccccc4)nc3)cc2)nc1-c1ccccc1 [Example 288, 3-[3-phenyl-1-[4-(6-phenyl-3-pyridylmethoxy)benzyl]-1H-pyrazol-4-yl]propionic acid]",155 to 156
10,"O=C(O)CCc1cn(Cc2ccc(OCc3ccc4ccccc4n3)cc2)nc1-c1ccc(F)cc1 [Example 294, 3-[3-(4-fluorophenyl)-1-[4-(2-quinolylmethoxy)benzyl]-1H-pyrazol-4-yl]propionic acid]",178 to 179
11,"O=C(O)CCc1cn(Cc2ccc(OCc3ccc(-c4ccccc4)cn3)cc2)nc1-c1ccc(F)cc1 [Example 296, 3-[3-(4-fluorophenyl)-1-[4-(5-phenyl-2-pyridylmethoxy)benzyl]-1H-pyrazol-4-yl]propionic acid]",162 to 163
12,"O=C(O)CCc1cn(Cc2ccc(OCc3ccc4ccccc4n3)nc2)nc1-c1ccccc1 [Example 298, 3-[3-phenyl-1-(6-(2-quinolylmethoxy)-3-pyridylmethyl]-1H-pyrazol-4-yl]propionic acid]",166 to 167
13,"CCOC(=O)CCc1cn(Cc2cccnc2OCc2csc(-c3ccccc3)n2)nc1-c1ccccc1 [Example 299, ethyl 3-[3-phenyl-1-[2-(2-phenyl-4-thiazolylmethoxy)-3-pyridylmethyl]-1H-pyrazol-4-yl]propionate]",88 to 89
14,"O=C(O)CCc1cn(Cc2ccc(OCc3csc(-c4ccccc4)n3)cc2)nc1-c1ccccc1 [Example 304, 3-[3-phenyl-1-[4-(2-phenyl-4-thiazolylmethoxy)benzyl]-1H-pyrazol-4-yl]propionic acid]",132 to 133
15,"Cc1oc(-c2ccccc2)nc1COc1ccc(Cn2cc(CCC(=O)O)c(-c3ccccc3)n2)nc1 [Example 306, 3-[1-[5-(5-methyl-2-phenyl-4-oxazolylmethoxy)-2-pyridylmethyl]-3-phenyl-1H-pyrazol-4-yl]propionic acid]",175 to 176
16,"CCOC(=O)Cc1cn(Cc2ccc(OCc3csc(-c4ccccc4)n3)nc2)nc1-c1ccccc1 [Example 309, ethyl(3-phenyl-1-[6-(2-phenyl-4-thiazolylmethoxy)-3-pyridylmethyl]-1H-pyrazol-4-yl]acetate]",75 to 76
17,"Cc1sc(-c2ccccc2)nc1COc1ccc(Cn2cc(CC(=O)O)c(-c3ccccc3)n2)cn1 [Example 312, [1-[6-(5-methyl-2-phenyl-4-thiazolylmethoxy)-3-pyridylmethyl]-3-phenyl-1H-pyrazol-4-yl]acetic acid]",140 to 141
18,"Cc1oc(-c2ccco2)nc1COc1ccc(Cn2cc(CC(=O)O)c(-c3ccccc3)n2)cn1 [Example 316, [1-[6-[2-(2-furyl)-5-methyl-4-oxazolylmethoxy]-3-pyridylmethyl]-3-phenyl-1H-pyrazol-4-yl]acetic acid]",135 to 136
19,"O=C(O)Cc1cn(Cc2ccc(OCc3ccccc3)cc2)nc1-c1ccc(F)cc1 [Example 317, [1-(4-benzyloxybenzyl)-3-(4-fluorophenyl)-1H-pyrazol-4-yl]acetic acid]",194 to 195
20,"COC(=O)Cc1cn(Cc2ccc(OCc3ccccc3)cc2)nc1-c1ccc(F)cc1 [Example 318, methyl [1-(4-benzyloxybenzyl)-3-(4-fluorophenyl)-1H-pyrazol-4-yl]acetate]",58 to 59
